Data on one compound can be found in patent publication US9295735B2, “Liposomal composition for convection-enhanced delivery to the central nervous centre” (MEDGENESIS THERAPEUTIX, INC., priority 2008, dated 2016).

Data set [1] relates to various malignant glioma cells lines. The following applies: read-out: 50% inhibitory concentration (IC50), cited from earlier work.
A short description of data set [2]: Brain tissue pharmacokinetics of Ls-TPT formulations and free topotecan after intracerebral CED (HPLC of total topotecan). The class given is in vivo, Sprague-Dawley rats. Here is the method:
The experiments in this example were performed with research grade material of both liposomal-topotecan (Ls-TPT) and liposomal gadodiamide (Ls-GD). Topotecan (TPT) for free topotecan formulation and for Ls-TPT preparation was obtained from Hisun Pharmaceuticals (Taizhou City, Zhejiang, China). Ls-TPT was provided by Northern Lipids Inc (Burnaby, BC, Canada). In brief, liposomes were composed of distearoylphosphatidylcholine (DSPC), distearoylphosphatidylglycerol (DSPG), and cholesterol at a 7:2:1 molar ratio with 75 to 90 nm target size. Topotecan was remotely loaded (actively encapsulated) into liposomes in response to a transmembrane pH gradient using internal and external buffers consisting of ammonium sulfate 250 mM pH 5.5 and histidine 5 mM/NaCl 145 mM pH 6.0 respectively. Topotecan concentrations of 0.67 and 2.0 mg/mL with a 0.1 and 0.3 (w/w) drug:lipid ratio were respectively targeted assuming a 90-95% drug encapsulation efficiency. A constant total lipid concentration target of 6.7 mg/mL was maintained in both formulations. The manufacturing process is described in details in Example 2.1.2.
For the formulation screening component of this example, the animals were divided in 4 groups based on Ls-TPT formulations or free topotecan as outlined in Table 1.
Rats were anesthetized with either isoflurane (5% for induction; 2.5 to 3.0% for maintenance during surgery) inhalation or a combination of ketamine (60 mg/kg) and xylazine (8 mg/kg) via an intraperitoneal injection. […] Craniectomy was performed using a small electric dental drill with 1-mm diameter burr holes, 0.5 mm anterior and 3 mm left and right from the bregma. […] The test article was injected bilaterally at one site into each striatum.
The brains were removed, placed on ice and the striata dissected using a dorsal approach and the tissue frozen in liquid nitrogen. The tissue was subsequently homogenized with an equal volume of water (1:1 v/v) and then extracted with methanol and stored at −70° C. until shipment to the Sponsor. Tail vein blood was collected (1.0 mL) for the formulation tissue and plasma pharmacokinetics component of this Example.
High performance liquid chromatography (HPLC) of total topotecan (free and liposome-encapsulated) in brain tissue and in plasma was performed by Northern Lipids Inc. (Burnaby, BC, Canada) using an isocratic reversed phase HPLC/UV method. Method details were as follows. Briefly, the animals (n=3) were sacrificed at 1 and 6 hours, 2, 4 and 7 days. The brains were removed, placed on ice, the striata dissected using a dorsal approach and the tissue frozen in liquid nitrogen. Equal volume of ice cold water (1:1 w/w) was added and the thawed tissue was homogenized (Biospec) mechanically for 2 minutes and frozen.

The mark [3] stands for this setting: normal rat brain tissue after CED, non-compartmental analysis.

Read-outs that look alike come from different tables or passages of the source.

Consider `CC[C@@]1(O)C(=O)OCc2c1cc1n(c2=O)Cc2cc3c(CN(C)C)c(O)ccc3nc2-1` [Formulation F4, topotecan], for which the IC50 in data set [1] (exposure over 1 hour) was 2400 nM; in data set [1] (exposure over 24 hours), 38 nM; in data set [1] (exposure over 72 hours), 280 nM; in data set [1] (exposure over 120 hours), at least 20 nM. Also, the concentration at 1 h in data set [2] (Sprague-Dawley, brain (striatum), normal rat striatum, CED 20 μL per hemisphere, TPT 0.5 mg/mL, 1 hour, read-out: Topotecan brain tissue concentration, Mean ± STD) was 44.3 ± 39.4 µM. Also, the concentration at 6 h in data set [2] (Sprague-Dawley, brain (striatum), normal rat striatum, CED 20 μL per hemisphere, TPT 0.5 mg/mL, 6 hours, read-out: Topotecan brain tissue concentration, Mean ± STD) worked out at 15.6 ± 13.8 µM. In data set [2] (Sprague-Dawley, brain (striatum), normal rat striatum, CED 20 μL per hemisphere, TPT 0.5 mg/mL, 48 hours, read-out: Topotecan brain tissue concentration, Mean ± STD), the concentration at 48 h is 0 nM. Besides, in data set [2] (Sprague-Dawley, brain (striatum), normal rat striatum, CED 20 μL per hemisphere, TPT 0.5 mg/mL, 96 hours, read-out: Topotecan brain tissue concentration, Mean ± STD), the concentration at 96 h worked out at 0 nM. Moreover, in data set [2] (Sprague-Dawley, brain (striatum), normal rat striatum, CED 20 μL per hemisphere, TPT 0.5 mg/mL, 168 hours, read-out: Topotecan brain tissue concentration, Mean ± STD), the concentration at 168 h came out at 0 nM. Further, the “AUC(0-last)” value in data set [2] (setting [3]) came to 5.5 µg·days/g. In addition, the t1/2 entry in data set [2] (setting [3]) is “much shorter”. The “Topotecan brain tissue concentration, Mean ± STD” value is 0.0203 ± 0.0181 mg/g of brain tissue in data set [2] (normal rat striatum, CED 20 μL per hemisphere, TPT 0.5 mg/mL, 1 hour); 0.0071 ± 0.0063 mg/g of brain tissue in data set [2] (normal rat striatum, CED 20 μL per hemisphere, TPT 0.5 mg/mL, 6 hours); 0 mg/g of brain tissue in data set [2] (normal rat striatum, CED 20 μL per hemisphere, TPT 0.5 mg/mL, 48 hours); 0 mg/g of brain tissue in data set [2] (normal rat striatum, CED 20 μL per hemisphere, TPT 0.5 mg/mL, 96 hours); 0 mg/g of brain tissue in data set [2] (normal rat striatum, CED 20 μL per hemisphere, TPT 0.5 mg/mL, 168 hours).
